Test systems include 786-0; HL-60; K562; MOLT-4; Malme-3M; NCI-H226; NCI-H23; NCI-H460; OVCAR-4; OVCAR-8; SK-MEL-28; TK-10; UACC-62; UO-31; CAKI-1.
Assay in all cases: growth of human tumour cells (NCI), 48 h

The structures appear in SMILES notation.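 Five compound concentrations were applied to cells in 96-well plates for 48 hours; endpoints were derived by simple linear interpolation of the resulting dose-response curve. GI50: concentration for 50% inhibition of growth.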 The source made the active and inactive calls. No stated cut-off is given here; in the data, active = GI50 up to about 1.1 µM and inactive = higher.

`O=Cc1cn(S(=O)(=O)c2ccccc2)c2ccccc12`: the GI50 in the assay with 786-0 is 55.5 µM (inactive); in the assay on HL-60, 16.7 µM (inactive); with K562, 19.9 µM (inactive); with MOLT-4, 16.3 µM (inactive); with Malme-3M, 34.5 µM (inactive); in the assay with NCI-H226 it was 70.3 µM (inactive). Besides, the GI50 in the assay with NCI-H23 was 26.4 µM (inactive); in the assay with NCI-H460, > 100 µM (inactive); in the assay on OVCAR-4 it was 33.6 µM (inactive); in the assay with OVCAR-8, 33.5 µM (inactive); with SK-MEL-28 it was 32.4 µM (inactive); in the assay with TK-10 it was > 100 µM (inactive). The GI50 with UACC-62 is 26.9 µM (inactive); in the assay on UO-31, 18.7 µM (inactive).
As for `Cc1ccc(C)c(NC(=O)C(=O)C(C2C(C)CC(=O)C2CC(=O)O)[N+](=O)[O-])c1` (stereo not drawn), the GI50 in the assay on 786-0, with CAKI-1, in the assay on HL-60, in the assay on K562, in the assay with MOLT-4 and with Malme-3M was > 100 µM (inactive) each time. Also, the GI50 in the assay with NCI-H226, in the assay on NCI-H23, in the assay with NCI-H460, in the assay on OVCAR-4, in the assay on SK-MEL-28 and in the assay with TK-10 was > 100 µM (inactive) in each case. Moreover, the GI50 in the assay on UACC-62 and with UO-31 was > 100 µM (inactive) in each case.
Turning to `O=C(c1ccccc1)c1nc2c(Cl)ccc(Cl)c2cc1C(Br)Br`, the GI50 was 0.286 µM (active) in the assay on 786-0; 1.58 µM (inactive) in the assay on CAKI-1; 0.311 µM (active) in the assay on K562; 1.36 µM (inactive) in the assay on MOLT-4; 2.19 µM (inactive) in the assay on Malme-3M; 1.97 µM (inactive) in the assay with NCI-H226. The GI50 is 1.82 µM (inactive) in the assay on OVCAR-4; 1.44 µM (inactive) with OVCAR-8; 0.215 µM (active) with SK-MEL-28; 1.43 µM (inactive) with TK-10; 1.25 µM (inactive) in the assay on UACC-62; 1.29 µM (inactive) in the assay with UO-31.
Regarding `NC(=O)CCC(NC(=O)Cc1ccccc1)C(=O)O.NC(CCC(=O)NC(=O)Cc1ccccc1)C(=O)O` (stereo not drawn), the GI50 in the assay on 786-0, in the assay with CAKI-1, with HL-60, with K562, with MOLT-4 and with Malme-3M was > 8130 µM (inactive) in each case. Moreover, the GI50 with NCI-H23, in the assay with OVCAR-4, with OVCAR-8, in the assay on SK-MEL-28, in the assay with TK-10 and with UACC-62 was > 8130 µM (inactive) in each case. In addition, in the assay on UO-31, the GI50 is > 8130 µM (inactive).
`COc1ccc2c3c([nH]c2c1[N+](=O)[O-])C(C)N(Cc1ccccc1)CC3` (stereo not drawn): the GI50 is 4.35 µM (inactive) with 786-0; 2.47 µM (inactive) in the assay with CAKI-1; 2.18 µM (inactive) in the assay with HL-60; 0.643 µM (active) in the assay on K562; 3.2 µM (inactive) in the assay on MOLT-4; 4.49 µM (inactive) with NCI-H226. The GI50 with NCI-H23 was 7.94 µM (inactive); in the assay with NCI-H460 it was 2.94 µM (inactive); in the assay on OVCAR-4, 13.9 µM (inactive); in the assay on OVCAR-8, 3.72 µM (inactive); with SK-MEL-28 it was 7.69 µM (inactive); in the assay with TK-10 it was 9.25 µM (inactive). Moreover, the GI50 is 3.1 µM (inactive) with UACC-62 and 13.8 µM (inactive) in the assay on UO-31.
Turning to `COc1ccc2c3c(c(C(=O)c4ccccc4)oc13)CCC2`, the GI50 is > 100 µM (inactive) with 786-0; > 100 µM (inactive) in the assay with CAKI-1; > 100 µM (inactive) in the assay on HL-60; > 100 µM (inactive) in the assay with K562; > 100 µM (inactive) in the assay on MOLT-4; 20.8 µM (inactive) in the assay on NCI-H23. Moreover, the GI50 in the assay with NCI-H460, in the assay with OVCAR-4, in the assay on OVCAR-8, in the assay on SK-MEL-28, in the assay with TK-10 and in the assay with UACC-62 was > 100 µM (inactive) each time.
In the case of `O=C(/C=C/c1c(O)ccc2ccccc12)c1ccc([N+](=O)[O-])cc1`, the GI50 with 786-0 was 24.5 µM (inactive); in the assay on CAKI-1 it was 37.8 µM (inactive); in the assay with HL-60, 9.77 µM (inactive); in the assay with K562 it was > 49.4 µM (inactive); in the assay with MOLT-4, 43.6 µM (inactive); with Malme-3M, 22.9 µM (inactive). For the same molecule, the GI50 in the assay with NCI-H226 was > 100 µM (inactive); with NCI-H23, 23.1 µM (inactive); with NCI-H460, 46.9 µM (inactive); with OVCAR-4, 18.5 µM (inactive); with OVCAR-8, 37.2 µM (inactive); in the assay on SK-MEL-28, 30.1 µM (inactive). Besides, the GI50 in the assay with TK-10 was > 53.5 µM (inactive); with UACC-62 it was 17.4 µM (inactive); with UO-31, > 43 µM (inactive).
With `COC1OC(CO)C(O)C(O)C1Br` (stereo not drawn), the GI50 in the assay with 786-0, with CAKI-1, with HL-60, in the assay on K562, in the assay on MOLT-4 and with Malme-3M was > 100 µM (inactive) in each case. For the same molecule, the GI50 in the assay with NCI-H23, with NCI-H460, in the assay on OVCAR-4, in the assay on OVCAR-8, with SK-MEL-28 and with TK-10 was > 100 µM (inactive) in each case. For the same molecule, in the assay with UACC-62, the GI50 is > 100 µM (inactive).
Regarding `COc1ccc(C2=NC(C)(C)CO2)cc1`, the GI50 with 786-0, with CAKI-1, in the assay on HL-60, in the assay with K562, in the assay with Malme-3M and in the assay with NCI-H23 was > 100 µM (inactive) in each case. The GI50 with NCI-H460, in the assay on OVCAR-4, in the assay on OVCAR-8, in the assay with SK-MEL-28, with TK-10 and with UACC-62 was > 100 µM (inactive) each time.
Consider `Cc1ccc(C)c2c1CCc1cc3ccccc3nc1-2`, for which the GI50 in the assay with 786-0, with CAKI-1, in the assay on K562, in the assay on MOLT-4, in the assay on Malme-3M and in the assay on NCI-H23 was > 100 µM (inactive) throughout. Also, the GI50 in the assay with NCI-H460, in the assay on OVCAR-4, with OVCAR-8, in the assay on SK-MEL-28, in the assay on TK-10 and in the assay on UACC-62 was > 100 µM (inactive) throughout. Moreover, the GI50 in the assay on UO-31 was > 100 µM (inactive).
Turning to `Cc1ccc(S(=O)(=O)N2CCC2c2ccccc2)cc1` (stereo not drawn), the GI50 was > 100 µM (inactive) with 786-0; 7.13 µM (inactive) in the assay on HL-60; 41.8 µM (inactive) in the assay with K562; 37.8 µM (inactive) with MOLT-4; > 100 µM (inactive) with Malme-3M; 28.6 µM (inactive) in the assay on NCI-H226. Besides, the GI50 in the assay with NCI-H23 is 76.4 µM (inactive); in the assay on NCI-H460 it was > 100 µM (inactive); in the assay with OVCAR-4, 46.6 µM (inactive); in the assay with OVCAR-8 it was > 100 µM (inactive); in the assay on SK-MEL-28, > 100 µM (inactive); in the assay with TK-10, > 100 µM (inactive). Besides, the GI50 in the assay on UACC-62 is 76.7 µM (inactive); in the assay on UO-31, 23.1 µM (inactive).
As for `Cn1c(C2CC(C)(C)c3c2c2ccccc2n3C)cc2ccccc21` (stereo not drawn), the GI50 with 786-0 was > 304 µM (inactive); in the assay with CAKI-1 it was 192 µM (inactive); with HL-60 it was > 304 µM (inactive); with K562, > 304 µM (inactive); with MOLT-4 it was > 304 µM (inactive); in the assay on Malme-3M, > 304 µM (inactive). The GI50 is 180 µM (inactive) in the assay on NCI-H226; > 304 µM (inactive) in the assay with NCI-H23; > 304 µM (inactive) with NCI-H460; > 304 µM (inactive) in the assay with OVCAR-8; > 304 µM (inactive) with SK-MEL-28; > 304 µM (inactive) in the assay with TK-10. The GI50 in the assay on UACC-62 was > 304 µM (inactive).
As for `CC(=O)n1ccc2c(Cl)ncnc21`, the GI50 with 786-0 is > 100 µM (inactive); in the assay on CAKI-1, > 61.4 µM (inactive); with HL-60, > 100 µM (inactive); in the assay with K562, > 100 µM (inactive); in the assay with MOLT-4, > 100 µM (inactive); in the assay with NCI-H23, > 100 µM (inactive). The GI50 in the assay on NCI-H460, with OVCAR-8, in the assay on SK-MEL-28, in the assay with TK-10 and in the assay with UACC-62 was > 100 µM (inactive) each time.
As for `CC[P+](C)(Cc1ccccc1)c1ccccc1.O=C(OC(C(=O)[O-])C(OC(=O)c1ccccc1)C(=O)O)c1ccccc1` (stereo not drawn), the GI50 with 786-0, in the assay on CAKI-1, with K562, in the assay with Malme-3M, in the assay with NCI-H23 and in the assay with OVCAR-4 was > 100 µM (inactive) throughout. Moreover, the GI50 in the assay on OVCAR-8, in the assay on SK-MEL-28, in the assay on TK-10, with UACC-62 and with UO-31 was > 100 µM (inactive) in each case.
As for `COc1cc2ccnc(C#N)c2cc1OCc1ccccc1`, the GI50 with 786-0 was 37.4 µM (inactive); in the assay on CAKI-1, > 100 µM (inactive); in the assay with K562, > 100 µM (inactive); in the assay with MOLT-4 it was > 100 µM (inactive); in the assay on Malme-3M, > 100 µM (inactive); with NCI-H23, > 100 µM (inactive). Besides, the GI50 was > 100 µM (inactive) in the assay with NCI-H460; 33.7 µM (inactive) with OVCAR-4; > 100 µM (inactive) with OVCAR-8; > 100 µM (inactive) with SK-MEL-28; > 100 µM (inactive) with TK-10; > 100 µM (inactive) in the assay with UO-31.

The record behind these values is ChEMBL document CHEMBL1201862, “PubChem BioAssay data set” (2004).
